This note sets out measurements from patent US8021848B2, “Rapid and sensitive detection of cells and viruses” (Straus Holdings Inc., priority 2001, dated 2011).

The subject of test [1] is E. coli MG1655 (sensitive strain). The test can be described thus: Rapid antimicrobial susceptibility testing (broth dilution, large area CCD imaging). Conditions: after 4 hours of growth; comparable by CCD imaging, liquid culture or colony counting. In kind it is cell-based. The method, then:
(§1) Cells of two strains, one resistant and one sensitive, were tested for their ability to grow in a period of several hours in the antibiotic. Growth was detected by large area imaging of individual cells stained with a fluorescent nucleic acid stain.
(§2) Experimental procedure. […] Also at these times points both a visible turbidity growth check and a plate count were performed. The turbidity check was performed according to NCCLS broth dilution guidelines. A “+” was recorded for a turbid culture and a “−” for non-turbid culture. The 1 ml aliquots were then stained with Syber Green I as in Example 2. Aliquots (10 μl) of the stained cells were placed in separate wells (with optically clear bottoms) of a 96 well plate (Greiner America, Inc.; cat. num. 655896), which contained 90 μl of water (Type I quality). The plates were spun in a centrifuge (Beckman Allegra) for 10 min at 600 g and then imaged. Fluorescence was detected by imaging using a CCD imager (described in Step 6 of Detailed description section and shown in FIG. 3) with an FITC optical filter set (Chroma/excitation 470/40 nm, emission 522/40 nm). Image-Pro Plus software, version 4.1 (Media cybernetics) was used to capture and process images from the CCD Imager.

The test system of test [2] is E. coli MG1655/pLAFRI (resistant strain). The settings on record: after 4 hours of growth; comparable by CCD imaging, liquid culture or colony counting. The procedure:
as §1, §2

On to `CN(C)[C@@H]1C(O)=C(C(N)=O)C(=O)[C@@]2(O)C(O)=C3C(=O)c4c(O)cccc4[C@@](C)(O)[C@H]3C[C@@H]12` [tetracycline], for which, in test [1], the “antibiotic concentration that inhibited growth of the antibiotic sensitive strain” value is 0.25 µg/mL. In test [2], the “antibiotic concentration in which dramatic growth of the resistant strain was evident” value came to 64 µg/mL.
